In article PMC2233662 (The Journal of General Physiology, 2001):

Target: r-InsP3R-3 (recombinant rat type 3 InsP3R) (Rattus norvegicus, UniProt Q63269)
Experiment: single-channel patch clamp of outer nuclear membrane of isolated oocyte nuclei
Type: cell-based

r-InsP3R-3 (recombinant rat type 3 InsP3R), sequence (Q63269 whole entry): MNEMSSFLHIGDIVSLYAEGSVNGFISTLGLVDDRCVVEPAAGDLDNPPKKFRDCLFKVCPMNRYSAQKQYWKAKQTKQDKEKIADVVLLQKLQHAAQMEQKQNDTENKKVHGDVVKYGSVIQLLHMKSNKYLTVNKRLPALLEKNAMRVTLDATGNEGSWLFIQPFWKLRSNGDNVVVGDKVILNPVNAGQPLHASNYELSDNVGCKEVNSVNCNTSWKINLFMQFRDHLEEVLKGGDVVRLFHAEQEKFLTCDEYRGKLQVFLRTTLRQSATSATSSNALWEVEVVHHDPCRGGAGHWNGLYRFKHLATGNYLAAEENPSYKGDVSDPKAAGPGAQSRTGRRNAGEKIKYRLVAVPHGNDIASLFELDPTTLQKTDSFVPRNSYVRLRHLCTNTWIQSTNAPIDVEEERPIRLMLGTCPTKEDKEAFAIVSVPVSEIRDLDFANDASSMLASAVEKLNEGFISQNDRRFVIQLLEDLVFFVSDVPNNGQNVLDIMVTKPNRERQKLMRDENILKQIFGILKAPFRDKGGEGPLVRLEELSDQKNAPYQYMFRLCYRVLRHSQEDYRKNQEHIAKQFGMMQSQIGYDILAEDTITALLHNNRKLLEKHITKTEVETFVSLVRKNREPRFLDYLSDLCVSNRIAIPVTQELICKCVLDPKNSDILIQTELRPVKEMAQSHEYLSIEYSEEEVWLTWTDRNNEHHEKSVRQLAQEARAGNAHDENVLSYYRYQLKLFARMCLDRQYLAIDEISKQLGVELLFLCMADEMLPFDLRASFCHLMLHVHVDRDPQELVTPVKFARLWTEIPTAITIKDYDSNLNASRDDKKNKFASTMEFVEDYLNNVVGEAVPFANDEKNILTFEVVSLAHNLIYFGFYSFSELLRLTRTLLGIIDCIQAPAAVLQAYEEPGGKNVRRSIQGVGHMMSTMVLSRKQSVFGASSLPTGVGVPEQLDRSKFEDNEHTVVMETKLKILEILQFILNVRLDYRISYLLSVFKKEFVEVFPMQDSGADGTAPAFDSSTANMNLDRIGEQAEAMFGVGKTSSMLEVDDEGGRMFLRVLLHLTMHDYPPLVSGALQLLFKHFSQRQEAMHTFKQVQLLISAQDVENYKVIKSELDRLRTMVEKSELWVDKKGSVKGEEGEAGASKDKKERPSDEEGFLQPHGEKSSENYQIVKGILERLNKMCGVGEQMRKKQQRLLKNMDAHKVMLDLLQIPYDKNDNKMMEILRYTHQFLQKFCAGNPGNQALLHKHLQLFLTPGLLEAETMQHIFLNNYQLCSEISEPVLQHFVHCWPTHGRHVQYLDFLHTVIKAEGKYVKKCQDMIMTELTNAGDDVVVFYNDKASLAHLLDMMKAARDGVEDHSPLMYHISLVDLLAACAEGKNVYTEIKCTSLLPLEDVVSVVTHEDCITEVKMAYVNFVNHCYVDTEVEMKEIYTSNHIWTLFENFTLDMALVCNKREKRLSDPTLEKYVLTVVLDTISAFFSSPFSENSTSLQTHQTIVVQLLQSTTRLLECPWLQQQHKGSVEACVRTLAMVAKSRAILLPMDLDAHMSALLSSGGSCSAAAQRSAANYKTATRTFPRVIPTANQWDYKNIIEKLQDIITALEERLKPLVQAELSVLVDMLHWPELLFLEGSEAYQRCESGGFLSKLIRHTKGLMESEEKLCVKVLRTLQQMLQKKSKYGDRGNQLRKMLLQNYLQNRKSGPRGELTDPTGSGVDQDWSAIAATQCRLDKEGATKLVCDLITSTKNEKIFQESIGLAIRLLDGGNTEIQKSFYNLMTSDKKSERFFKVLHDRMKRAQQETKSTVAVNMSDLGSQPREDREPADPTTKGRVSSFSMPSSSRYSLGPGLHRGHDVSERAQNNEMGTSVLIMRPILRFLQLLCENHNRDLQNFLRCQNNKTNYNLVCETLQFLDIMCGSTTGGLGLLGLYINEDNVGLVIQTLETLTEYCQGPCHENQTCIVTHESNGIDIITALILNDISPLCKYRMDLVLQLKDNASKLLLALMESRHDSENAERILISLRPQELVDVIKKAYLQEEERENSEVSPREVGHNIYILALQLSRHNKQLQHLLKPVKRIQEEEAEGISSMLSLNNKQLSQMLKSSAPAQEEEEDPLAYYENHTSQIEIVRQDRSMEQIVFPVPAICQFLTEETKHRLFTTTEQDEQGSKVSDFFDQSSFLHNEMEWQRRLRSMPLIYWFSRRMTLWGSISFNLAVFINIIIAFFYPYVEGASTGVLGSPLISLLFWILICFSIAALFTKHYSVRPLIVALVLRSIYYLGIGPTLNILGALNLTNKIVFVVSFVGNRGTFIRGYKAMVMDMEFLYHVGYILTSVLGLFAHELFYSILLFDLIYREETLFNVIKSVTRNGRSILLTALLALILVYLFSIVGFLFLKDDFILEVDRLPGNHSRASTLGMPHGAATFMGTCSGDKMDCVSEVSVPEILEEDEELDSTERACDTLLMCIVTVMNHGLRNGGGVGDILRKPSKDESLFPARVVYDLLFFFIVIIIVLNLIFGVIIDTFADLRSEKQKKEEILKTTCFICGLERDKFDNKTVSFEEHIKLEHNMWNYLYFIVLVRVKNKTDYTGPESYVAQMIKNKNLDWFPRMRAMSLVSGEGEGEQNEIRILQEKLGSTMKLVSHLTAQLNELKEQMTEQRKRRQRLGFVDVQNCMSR

EC50: 55 ± 6 nM
SMILES: O=P(O)(O)O[C@@H]1[C@H](O)[C@H](O)[C@@H](OP(=O)(O)O)[C@H](OP(=O)(O)O)[C@H]1O [InsP3]
